From US20260232625A1, “NOVEL DECURSIN DERIVATIVE AND USE THEREOF FOR PREVENTING OR TREATING NON-SMALL CELL LUNG CANCER” (JAEIN R&P INC., priority 2023, published 2026)

What follows are compounds tested on A549 (assay: MTT cytotoxicity evaluation against A549 cells). Conditions: Homo sapiens, A549, 48 h, Method 1: 12.5-200 μM, 48 hours.
Assay type: cell-based, human
Method: A549 (human lung cancer cells) were obtained from the American Type Culture Collection (ATCC) and used. The cells were cultured in a medium containing 10% FBS, 1% penicillin (10,000 units/mL), and streptomycin (10 mg/mL), or in Dulbecco's Modified Eagle's Medium (DMEM), at 37° C. under 5% CO2 conditions.
To measure cytotoxicity, an MTT assay was used. Specifically, A549 cells cultured according to Experimental Example 1 were seeded into a 96-well plate at a density of 2.5×10^4 cells/mL in 100 μL, and incubated for 24 hours. Thereafter, the cells were treated with either the compounds prepared according to Examples 1 to 27 or, as comparative agents, decursin or docetaxel. The prepared compounds and decursin were each administered to the A549 cell line at concentrations of 0 μM (untreated), 12.5 μM, 25 μM, 50 μM, 100 μM, and 200 μM, while docetaxel was administered at concentrations of 0 nM (untreated), 0.1 nM, 1 nM, 10 nM, 100 nM, and 1,000 nM, followed by incubation for an additional 48 hours. Then, 20 μL of MTT solution was added (Method 1). Alternatively, the compounds prepared according to Examples 28 to 30, the compound of Example 5 as a reference compound or, as comparative agents, decursin or docetaxel, were used. The prepared compounds, the compound of Example 5, and decursin were each administered at concentrations of 0 μM (untreated), 3.125 μM, 6.25 μM, 12.5 μM, 25 μM, and 50 μM, while docetaxel was administered at concentrations of 0 nM (untreated), 0.6 nM, 1.25 nM, 2.5 nM, 5 nM, and 10 nM, and treated in the same manner as described in Method 1 (Method 2). The cells treated with MTT solution were incubated for 2 hours, the medium was removed, and the formazan blue crystals formed by the cells were treated with an MTT lysis buffer, followed by incubation in a cell incubator for 24 hours. The MTT lysis buffer was prepared by mixing N,N-dimethylformamide with water in a 1:1 ratio to give a solution containing 20% SIDS (sodium dodecyl sulfate) at the final concentration. The optical density at 590 nm was measured using a microplate reader (FIGS. 1a to 1d). Based on the measured values, the cytotoxicity (IC50) against A549 was calculated, and the results are disclosed in Table 1 together with the structural formulae.

Compound | IC50
CC1(C)Oc2cc3oc(=O)ccc3cc2C[C@@H]1OC(=O)CCc1ccc2c(c1)OCO2 [Example 6, (S)-2,2-dimethyl-8-oxo-2,3,4,8-tetrahydropyrano[3,2-g]chromen-3-yl 3-(benzo[d][1,3]dioxol-5-yl)propanoate] | ≥ 219 µM
CN(C)S(=O)(=O)c1ccc(/C=C/C(=O)N[C@@H]2c3cc4ccc(=O)oc4cc3OC(C)(C)[C@H]2O)cc1 [Example 26, (E)-3-(4-(N,N-dimethylsulfamoyl)phenyl)-N-((3S,4R)-3-hydroxy-2,2-dimethyl-8-oxo-2,3,4,8-tetrahydropyrano[3,2-g]chromen-4-yl)acrylamide] | > 200 µM
CC1(C)Oc2cc3oc(=O)ccc3cc2C[C@H]1OC(=O)/C=C/c1ccoc1 [Example 14, (R,E)-2,2-dimethyl-8-oxo-2,3,4,8-tetrahydropyrano[3,2-g]chromen-3-yl 3-(furan-3-yl)acrylate] | 152 µM
CC1(C)Oc2cc3oc(=O)ccc3cc2[C@@H](NC(=O)/C=C/c2ccccn2)[C@@H]1O [Example 21, (E)-N-((3S,4R)-3-hydroxy-2,2-dimethyl-8-oxo-2,3,4,8-tetrahydropyrano[3,2-g]chromen-4-yl)-3-(pyridin-2-yl)acrylamide] | > 200 µM
C/C(=C\c1ccccc1)C(=O)O[C@@H]1Cc2cc3ccc(=O)oc3cc2OC1(C)C [Example 13, (R,E)-2,2-dimethyl-8-oxo-2,3,4,8-tetrahydropyrano[3,2-g]chromen-3-yl 2-methyl-3-phenylacrylate] | 108 µM
CC1(C)Oc2cc3oc(=O)ccc3cc2C[C@H]1OC(=O)CCn1ccnc1 [Example 10, (R)-2,2-dimethyl-8-oxo-2,3,4,8-tetrahydropyrano[3,2-g]chromen-3-yl 3-(1H-imidazol-1-yl)propanoate] | > 200 µM
CC1(C)Oc2cc3oc(=O)ccc3cc2[C@@H](NC(=O)CCc2ccc3c(c2)OCO3)[C@@H]1O [Example 24, 3-(benzo[d][1,3]dioxol-5-yl)-N-((3S,4R)-3-hydroxy-2,2-dimethyl-8-oxo-2,3,4,8-tetrahydropyrano[3,2-g]chromen-4-yl)propanamide] | > 200 µM
CC1(C)Oc2cc3oc(=O)ccc3cc2C[C@H]1OC(=O)CCc1ccc2c(c1)OCO2 [Example 15, (R)-2,2-dimethyl-8-oxo-2,3,4,8-tetrahydropyrano[3,2-g]chromen-3-yl 3-(benzo[d][1,3]dioxol-5-yl)propanoate] | > 200 µM
CC1(C)Oc2cc3oc(=O)ccc3cc2C[C@H]1OC(=O)/C=C/c1ccc2c(c1)OCO2 [Example 16, (R,E)-2,2-dimethyl-8-oxo-2,3,4,8-tetrahydropyrano[3,2-g]chromen-3-yl 3-(benzo[d][1,3]dioxol-5-yl)acrylate] | > 200 µM
CC1(C)Oc2cc3oc(=O)ccc3cc2C[C@@H]1OC(=O)/C=C/c1ccccn1 [Example 3, (S,E)-2,2-dimethyl-8-oxo-2,3,4,8-tetrahydropyrano[3,2-g]chromen-3-yl 3-(pyridin-2-yl)acrylate] | 113 µM
CC1(C)Oc2cc3oc(=O)ccc3cc2C[C@@H]1OC(=O)CCn1ccnc1 [Example 1, (S)-2,2-dimethyl-8-oxo-2,3,4,8-tetrahydropyrano[3,2-g]chromen-3-yl 3-(1H-imidazol-1-yl)propanoate] | > 200 µM
CC1(C)Oc2cc3oc(=O)ccc3cc2C[C@H]1OC(=O)CCc1ccccn1 [Example 11, (R)-2,2-dimethyl-8-oxo-2,3,4,8-tetrahydropyrano[3,2-g]chromen-3-yl 3-(pyridin-2-yl)propanoate] | > 200 µM
CC1(C)Oc2cc3oc(=O)ccc3cc2C[C@H]1OC(=O)/C=C/c1ccccn1 [Example 12, (R,E)-2,2-dimethyl-8-oxo-2,3,4,8-tetrahydropyrano[3,2-g]chromen-3-yl 3-(pyridin-2-yl)acrylate] | 184 µM
C/C(=C\c1ccccc1)C(=O)N[C@@H]1c2cc3ccc(=O)oc3cc2OC(C)(C)[C@H]1O [Example 22, (E)-N-((3S,4R)-3-hydroxy-2,2-dimethyl-8-oxo-2,3,4,8-tetrahydropyrano[3,2-g]chromen-4-yl)-2-methyl-3-phenylacrylamide] | > 200 µM
CC1(C)Oc2cc3oc(=O)ccc3cc2[C@@H](NC(=O)CCc2ccccn2)[C@@H]1O [Example 20, N-((3S,4R)-3-hydroxy-2,2-dimethyl-8-oxo-2,3,4,8-tetrahydropyrano[3,2-g]chromen-4-yl)-3-(pyridin-2-yl)propanamide] | > 200 µM
CN(C)S(=O)(=O)c1ccc(/C=C/C(=O)O[C@@H]2Cc3cc4ccc(=O)oc4cc3OC2(C)C)cc1 [Example 17, (R,E)-2,2-dimethyl-8-oxo-2,3,4,8-tetrahydropyrano[3,2-g]chromen-3-yl 3-(4-(N,N-dimethylsulfamoyl)phenyl)acrylate] | > 200 µM
CC1(C)Oc2cc3oc(=O)ccc3cc2C[C@H]1OC(=O)/C=C/c1ccc(C(F)(F)F)cc1 [Example 18, (R,E)-2,2-dimethyl-8-oxo-2,3,4,8-tetrahydropyrano[3,2-g]chromen-3-yl 3-(4-(trifluoromethyl)phenyl)acrylate] | 172 µM
CN(C)S(=O)(=O)c1ccc(/C=C/C(=O)O[C@H]2Cc3cc4ccc(=O)oc4cc3OC2(C)C)cc1 [Example 8, (S,E)-2,2-dimethyl-8-oxo-2,3,4,8-tetrahydropyrano[3,2-g]chromen-3-yl 3-(4-(N,N-dimethylsulfamoyl)phenyl)acrylate] | > 200 µM
CC1(C)Oc2cc3oc(=O)ccc3cc2C[C@@H]1OC(=O)/C=C/c1ccc2c(c1)OCO2 [Example 7, (S,E)-2,2-dimethyl-8-oxo-2,3,4,8-tetrahydropyrano[3,2-g]chromen-3-yl 3-(benzo[d][1,3]dioxol-5-yl)acrylate] | > 200 µM
CC1(C)Oc2cc3oc(=O)ccc3cc2C[C@@H]1OC(=O)/C=C/c1ccc(C(F)(F)F)cc1 [Example 9, (S,E)-2,2-dimethyl-8-oxo-2,3,4,8-tetrahydropyrano[3,2-g]chromen-3-yl 3-(4-(trifluoromethyl)phenyl)acrylate] | > 200 µM
CC1(C)Oc2cc3oc(=O)ccc3cc2C[C@@H]1OC(=O)CCc1ccccn1 [Example 2, (S)-2,2-dimethyl-8-oxo-2,3,4,8-tetrahydropyrano[3,2-g]chromen-3-yl 3-(pyridin-2-yl)propanoate] | > 200 µM
CC(C)=CC(=O)O[C@H]1Cc2cc3ccc(=O)oc3cc2OC1(C)C [Decursin, decursin] | 43.6 µM
CC1(C)Oc2cc3oc(=O)ccc3cc2[C@@H](NC(=O)/C=C/c2ccc3c(c2)OCO3)[C@@H]1O [Example 25, (E)-3-(benzo[d][1,3]dioxol-5-yl)-N-((3S,4R)-3-hydroxy-2,2-dimethyl-8-oxo-2,3,4,8-tetrahydropyrano[3,2-g]chromen-4-yl)acrylamide] | 151 µM
CC1(C)Oc2cc3oc(=O)ccc3cc2[C@@H](NC(=O)CCn2ccnc2)[C@@H]1O [Example 19, N-((3S,4R)-3-hydroxy-2,2-dimethyl-8-oxo-2,3,4,8-tetrahydropyrano[3,2-g]chromen-4-yl)-3-(1H-imidazol-1-yl)propanamide] | > 200 µM

Same assay, conditions: Homo sapiens, A549, 48 h, Method 2 (marked *): 3.125-50 μM, 48 hours

Compound | IC50
CN(C)c1ccc(CC(=O)O[C@H]2Cc3cc4ccc(=O)oc4cc3OC2(C)C)cc1 [Example 29, (S)-2,2-dimethyl-8-oxo-2,3,4,8-tetrahydropyrano[3,2-g]chromen-3-yl 4-(dimethylamino)phenylacetate] | 52.4 µM
CC(C)=CC(=O)O[C@H]1Cc2cc3ccc(=O)oc3cc2OC1(C)C [Decursin, decursin] | 30.4 µM
